Source: patent publication US20240059703A1 (AMGEN INC., priority 2021, published 2024)

Target: KRAS G12C (Homo sapiens (Human), UniProt P01116, C118A/G12C)
Test: 2 h coupled exchange assay
Type: biochemical
Conditions: Avg 2 h Coupled exchange IC50, 2 h compound pre-incubation, SOS-mediated nucleotide exchange
Protocol: The term “2 h coupled exchange assay” or “20 h coupled exchange assay” as used herein refers to the assay described in the Section entitled “BIOLOGICAL EVALUATION.”

Sequence of KRAS G12C (P01116 other isoform, or with tags, fused parts or gaps G12C/C118A): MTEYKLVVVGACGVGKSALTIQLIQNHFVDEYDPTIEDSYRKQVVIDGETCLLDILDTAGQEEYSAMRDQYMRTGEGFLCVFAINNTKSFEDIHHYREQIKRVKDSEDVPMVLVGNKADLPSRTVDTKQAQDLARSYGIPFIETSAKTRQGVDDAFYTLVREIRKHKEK

IC50 [µM]	SMILES
0.242	C=CC(=O)N1CC2(CCN(c3nc4c(c(-c5c(Cl)ccc6[nH]ccc56)c3C#N)COC(C)(C)C4)C2)C1 [Example 12-16, 4-(5-chloro-1H-indol-4-yl)-7,7-dimethyl-2-(2-(2-propenoyl)-2,6-diazaspiro[3.4]octan-6-yl)-7,8-dihydro-5H-pyrano[4,3-b]pyridine-3-carbonitrile]
0.132	C=CC(=O)N1CC2(CCN(c3nc4c(c(-c5cccc6cc(N)ncc56)c3C#N)COC(C)(C)C4)C2)C1 [Example 12-17, 4-(3-amino-8-isoquinolinyl)-7,7-dimethyl-2-(2-(2-propenoyl)-2,6-diazaspiro[3.4]octan-6-yl)-7,8-dihydro-5H-pyrano[4,3-b]pyridine-3-carbonitrile]
0.988	C=CC(=O)N1CC2(CCN(c3nc4c(c(-c5c(Cl)c(C)cc6[nH]ncc56)c3C#N)C[C@H]3C[C@@H]4C3(C)C)C2)C1 [Example 12-18, (1R,9R)-6-(5-chloro-6-methyl-1H-indazol-4-yl)-10,10-dimethyl-4-(2-(2-propenoyl)-2,6-diazaspiro[3.4]octan-6-yl)-3-azatricyclo[7.1.1.0^2,7] undeca-2,4,6-triene-5-carbonitrile]
0.601	C=CC(=O)N1CC2(CCN(c3nc4c(c(-c5cccc6snnc56)c3C#N)COC(C)(C)C4)C2)C1 [Example 12-21, 4-(1,2,3-benzothiadiazol-4-yl)-7,7-dimethyl-2-(2-(2-propenoyl)-2,6-diazaspiro[3.4]octan-6-yl)-7,8-dihydro-5H-pyrano[4,3-b]pyridine-3-carbonitrile]
0.141	C=CC(=O)N1CC2(CCN(c3nc4c(c(-c5c(C)c(C)cc6cnn(C)c56)c3C)CCN(C(C)C)C4)C2)C1 [Example 12-25, 1-(6-(3-methyl-7-(2-propanyl)-4-(1,5,6-trimethyl-1H-indazol-7-yl)-5,6,7,8-tetrahydro-1,7-naphthyridin-2-yl)-2,6-diazaspiro[3.4]octan-2-yl)-2-propen-1-one]
0.687	C=CC(=O)N1CC2(CCN(c3nc4c(c(-c5c(C)ccc6nonc56)c3C#N)C[C@H]3C[C@@H]4C3(C)C)C2)C1 [Example 12-26, (1R,9R)-10,10-dimethyl-6-(5-methyl-2,1,3-benzoxadiazol-4-yl)-4-(2-(2-propenoyl)-2,6-diazaspiro[3.4]octan-6-yl)-3-azatricyclo[7.1.1.0^2,7] undeca-2,4,6-triene-5-carbonitrile]
0.476	C=CC(=O)N1CC2(CCN(c3nc4c(c(-c5cccc6cc(C(F)(F)F)[nH]c56)c3C#N)C[C@H]3C[C@@H]4C3(C)C)C2)C1 [Example 12-27, (1R,9R)-10,10-dimethyl-4-(2-(2-propenoyl)-2,6-diazaspiro[3.4]octan-6-yl)-6-(2-(trifluoromethyl)-1H-indol-7-yl)-3-azatricyclo[7.1.1.0^2,7] undeca-2,4,6-triene-5-carbonitrile]
0.263	C=CC(=O)N1CC2(CCN(c3nc4c(c(-c5cc(F)c(O)c6ccccc56)c3C#N)COC(C)(C)C4)C2)C1 [Example 12-28, 4-(3-fluoro-4-hydroxy-1-naphthalenyl)-7,7-dimethyl-2-(2-(2-propenoyl)-2,6-diazaspiro[3.4]octan-6-yl)-7,8-dihydro-5H-pyrano[4,3-b]pyridine-3-carbonitrile]
0.438	C=CC(=O)N1CC2(CCN(c3nc4c(c(-c5ncc(Cl)c6ccccc56)c3C#N)COC(C)(C)C4)C2)C1 [Example 12-30, 4-(4-chloro-1-isoquinolinyl)-7,7-dimethyl-2-(2-(2-propenoyl)-2,6-diazaspiro[3.4]octan-6-yl)-7,8-dihydro-5H-pyrano[4,3-b]pyridine-3-carbonitrile]
0.189	C=CC(=O)N1CC2(CCN(c3nc4c(c(-c5ccc(O)c6ccccc56)c3C#N)COC(C)(C)C4)C2)C1 [Example 12-31, 4-(4-hydroxy-1-naphthalenyl)-7,7-dimethyl-2-(2-(2-propenoyl)-2,6-diazaspiro[3.4]octan-6-yl)-7,8-dihydro-5H-pyrano[4,3-b]pyridine-3-carbonitrile]
0.515	C=CC(=O)N1CC2(CCN(c3nc4c(c(-c5cccc6ccc(O)cc56)c3C#N)COC(C)(C)C4)C2)C1 [Example 12-32, 4-(7-hydroxy-1-naphthalenyl)-7,7-dimethyl-2-(2-(2-propenoyl)-2,6-diazaspiro[3.4]octan-6-yl)-7,8-dihydro-5H-pyrano[4,3-b]pyridine-3-carbonitrile]
0.527	C=CC(=O)N1CC2(CCN(c3nc4c(c(-c5cccc6c(O)cccc56)c3C#N)COC(C)(C)C4)C2)C1 [Example 12-33, 4-(5-hydroxy-1-naphthalenyl)-7,7-dimethyl-2-(2-(2-propenoyl)-2,6-diazaspiro[3.4]octan-6-yl)-7,8-dihydro-5H-pyrano[4,3-b]pyridine-3-carbonitrile]
0.344	C=CC(=O)N1CC2(CCN(c3nc4c(c(-c5cccc6cnn(C)c56)c3C#N)C[C@H]3C[C@@H]4C3(C)C)C2)C1 [Example 12-40, (1R,9R)-10,10-dimethyl-6-(1-methyl-1H-indazol-7-yl)-4-(2-(2-propenoyl)-2,6-diazaspiro[3.4]octan-6-yl)-3-azatricyclo[7.1.1.0^2,7] undeca-2,4,6-triene-5-carbonitrile]
0.878	C=CC(=O)N1CC2(CCN(c3nc4c(c(-c5cccc6[nH]ccc56)c3C#N)C[C@H]3C[C@@H]4C3(C)C)C2)C1 [Example 12-42, (1R,9R)-6-(1H-indol-4-yl)-10,10-dimethyl-4-(2-(2-propenoyl)-2,6-diazaspiro[3.4]octan-6-yl)-3-azatricyclo[7.1.1.0^2,7] undeca-2,4,6-triene-5-carbonitrile]
0.169	Cc1ccc2[nH]ncc2c1-c1c(C#N)c(N2CCC3(CN(C(=O)/C=C/CF)C3)C2)nc2c1CCC(C)(C)C2 [Example 13-6, 2-(2-((2E)-4-fluoro-2-butenoyl)-2,6-diazaspiro[3.4]octan-6-yl)-7,7-dimethyl-4-(5-methyl-1H-indazol-4-yl)-5,6,7,8-tetrahydro-3-quinolinecarbonitrile]
0.229	Cc1ccc2[nH]ncc2c1-c1c(C#N)c(N2CCC3(CN(C(=O)/C=C/C(F)(F)F)C3)C2)nc2c1CCC(C)(C)C2 [Example 13-7, 7,7-dimethyl-4-(5-methyl-1H-indazol-4-yl)-2-(2-((2E)-4,4,4-trifluoro-2-butenoyl)-2,6-diazaspiro[3.4]octan-6-yl)-5,6,7,8-tetrahydro-3-quinolinecarbonitrile]
0.324	Cc1ccc2[nH]ncc2c1-c1c(C#N)c(N2CCC3(CN(C(=O)/C=C/CO)C3)C2)nc2c1CCC(C)(C)C2 [Example 13-9, 2-(2-((2E)-4-hydroxy-2-butenoyl)-2,6-diazaspiro[3.4]octan-6-yl)-7,7-dimethyl-4-(5-methyl-1H-indazol-4-yl)-5,6,7,8-tetrahydro-3-quinolinecarbonitrile]
0.259	C=CC(=O)N1CC2(CCN(c3nc4c(c(-c5c(C)ccc6[nH]ncc56)c3C#N)CN(C)CC4)C2)C1 [Example 13-22, 6-methyl-4-(5-methyl-1H-indazol-4-yl)-2-(2-(2-propenoyl)-2,6-diazaspiro[3.4]octan-6-yl)-5,6,7,8-tetrahydro-1,6-naphthyridine-3-carbonitrile]
0.769	C=CC(=O)N1CC2(CCN(c3nc4c(c(-c5ccccc5Cl)c3C#N)CC(C)(C)C4)C2)C1 [Example 13-23, 4-(2-chlorophenyl)-6,6-dimethyl-2-(2-(2-propenoyl)-2,6-diazaspiro[3.4]octan-6-yl)-6,7-dihydro-5H-cyclopenta[b]pyridine-3-carbonitirle]
0.231	C=CC(=O)N1CC2(CCN(c3nc4c(c(-c5scnc5C)c3C#N)CCC(c3ccnn3C)C4)C2)C1 [Example 13-27, (7S)-7-(1-methyl-1H-pyrazol-5-yl)-4-(4-methyl-1,3-thiazol-5-yl)-2-(2-(2-propenoyl)-2,6-diazaspiro[3.4]octan-6-yl)-5,6,7,8-tetrahydro-3-quinolinecarbonitrile|(7R)-7-(1-methyl-1H-pyrazol-5-yl)-4-(4-methyl-1,3-thiazol-5-yl)-2-(2-(2-propenoyl)-2,6-diazaspiro[3.4]octan-6-yl)-5,6,7,8-tetrahydro-3-quinolinecarbonitrile]
0.715	C=CC(=O)N1CC2(CCN(c3nc4c(c(-c5c(C)ccc6cnn(C)c56)c3C#N)C[C@H]3C[C@@H]4C3)[C@H]2C)C1 [Example 13-30, (1S,9R)-6-(1,6-dimethyl-1H-indazol-7-yl)-4-((5S)-5-methyl-2-(2-propenoyl)-2,6-diazaspiro[3.4]octan-6-yl)-3-azatricyclo[7.1.1.0^2,7]undeca-2,4,6-triene-5-carbonitrile]
0.676	C=CC(=O)N1CC2(CCN(c3nc4c(c(-c5cc(C)cc6ccccc56)c3C#N)COC(C)(C)C4)C2)C1 [Example 13-33, 7,7-dimethyl-4-(3-methyl-1-naphthalenyl)-2-(2-(2-propenoyl)-2,6-diazaspiro[3.4]octan-6-yl)-7,8-dihydro-5H-pyrano[4,3-b]pyridine-3-carbonitrile]
0.946	C=CC(=O)N1CC2(CCN(c3nc4c(c(-c5c(O)ccc6ccccc56)c3C#N)COC(C)(C)C4)C2)C1 [Example 13-34, 4-(2-hydroxy-1-naphthalenyl)-7,7-dimethyl-2-(2-(2-propenoyl)-2,6-diazaspiro[3.4]octan-6-yl)-7,8-dihydro-5H-pyrano[4,3-b]pyridine-3-carbonitrile]
1.78	C=CC(=O)N1CC2(CCN(c3nc4c(c(-c5c(O)ccc6ccccc56)c3C#N)C[C@H]3C[C@@H]4C3)C2)C1 [Example 13-35, (1S,9S)-6-(2-hydroxy-1-naphthalenyl)-4-(2-(2-propenoyl)-2,6-diazaspiro[3.4]octan-6-yl)-3-azatricyclo[7.1.1.0^2,7]undeca-2,4,6-triene-5-carbonitrile]
1.42	C=CC(=O)N1CC2(CCN(c3nc4c(c(-c5c(C)cccc5O)c3C#N)C[C@H]3C[C@@H]4C3)C2)C1 [Example 13-38, (1S,9S)-6-(2-hydroxy-6-methylphenyl)-4-(2-(2-propenoyl)-2,6-diazaspiro[3.4]octan-6-yl)-3-azatricyclo[7.1.1.0^2,7]undeca-2,4,6-triene-5-carbonitrile]
